This test deals with primary rat HSC. Nature of the test: Morphology and αSMA protein expression (activation of HSCs). It counts as cell-based. As to the method:
Activated HSC (third passage) were serum starved for 24 h in standard medium without FBS (starving medium), followed by dissociation with 500 μl 0.05% trypsin-EDTA (Biochrom, Berlin, Germany) and neutralization with 30 ml starving medium containing 1 g/l soybean trypsin inhibitor and 1 g/l ovalbumin. Alternatively, cells were scraped carefully with a cell-scraper (Costar, Cambridge, MA, USA) to exclude any potential effect of trypsin. […] For quantification of spreading, cells that had attached were counted 12 hours after plating and spreading efficiency was determined as percentage of plated cells in each group. De-novo DNA synthesis and apoptosis were assessed by morphological criteria, Cell death detection ELISA and FACS analysis as described below. […] After blocking the cells 1h with DMEM+1% FBS, the cells were incubated with primary antibodies against a-actin (Sigma-Aldrich, Taufkirchen, Germany, #A2547; dilution 1:200) and GFAP (Sigma-Aldrich, #G9269; dilution 1:20) followed by a washing step with PBS and the incubation with fluorescence-labeled secondary antibodies (Alexa Fluor 546 & Alexa Fluor 488, Molecular Probes, Eugene, USA, #A11030 & #A11034; dilution 1:100). […]
Dislodged cells were centrifuged at 800 x g/10 min and lysed with 100 μl lysis buffer. […] The emitted fluorescence was assessed at 570 nm in a SpectraMax Gemini EM (Molecular Devices, Biberach an der Riß, Germany). […]

As to “CVI: Human collagen VI isolated from placentas by pepsin digestion; triple helical, soluble”, under “freshly isolated rat HSCs, immunostaining, detected as early as three days, immunoblotting”, the “protein expression of αSMA” value was “strongly induced”. Besides, the “formation of cytoplasmic extensions” value (primary rat HSC, serum-reduced medium containing 1% FBS, five days) was “induced the formation of distinct cytoplasmic extensions”.
